Reference: ChEMBL document CHEMBL3045652, “Biorational glycol diesters as dietary toxins versus bioefficacy of sucrose octanoate against lepidopteran larvae” (Ind Crops Prod, 2012)
In brackets after ≈: the same amount, converted by molar mass. Activity calls are given as the source filed them. The calls are words filed in the database; no cut-off is given here.

Columns and labels:
Spodoptera litura [1] = assay: Insecticidal activity against second-instar larval stage of Spodoptera litura fed with artificial diet containing compound assessed as growth inhibition after 7 days; assay type: functional, organism-based; conditions: for EC50: 168 h
Helicoverpa armigera [2] = assay: Insecticidal activity against second-instar larval stage of Helicoverpa armigera fed with artificial diet containing compound assessed as growth inhibition after 7 days; assay type: functional, organism-based; conditions: for EC50: 168 h
Spodoptera litura [3] = assay: Antifeedant activity against third-instar larval stage of Spodoptera litura fed with artificial diet containing compound assessed as relative growth rate at 4.38 mg/ml after 3 days (reference value: 1.37 +/- 0.12 mg/mg/day); assay type: functional
Helicoverpa armigera [4] = assay: Antifeedant activity against third-instar larval stage of Helicoverpa armigera fed with artificial diet containing compound assessed as relative consumption rate at 5.38 mg/ml after 3 days (reference value: 1.88 +/- 0.14 mg/mg/day); assay type: functional
Helicoverpa armigera [5] = assay: Antifeedant activity against third-instar larval stage of Helicoverpa armigera fed with artificial diet containing compound assessed as relative growth rate at 5.38 mg/ml after 3 days (reference value: 0.97 +/- 0.13 mg/mg/day); assay type: functional
Helicoverpa armigera [6] = assay: Insecticidal activity against second-instar larval stage of Helicoverpa armigera assessed as increase in mortality applied as spray at 1 to 10 mg/ml after 72 hr; assay type: functional, organism-based
Spodoptera litura [7] = assay: Insecticidal activity against second-instar larval stage of Spodoptera litura fed with artificial diet containing compound assessed as mortality after 7 days; assay type: functional; conditions: 168 h
Spodoptera litura [8] = assay: Antifeedant activity against third-instar larval stage of Spodoptera litura fed with artificial diet containing compound assessed as efficiency index of ingested food at 4.38 mg/ml after 3 days (reference value: 64.5%); assay type: functional
Spodoptera litura [9] = assay: Insecticidal activity against second-instar larval stage of Spodoptera litura assessed as increase in mortality applied as spray at 1 to 10 mg/ml after 72 hr; assay type: functional, organism-based
Helicoverpa armigera [10] = assay: Antifeedant activity against third-instar larval stage of Helicoverpa armigera fed with artificial diet containing compound assessed as efficiency index of ingested food at 5.38 mg/ml after 3 days (reference value: 52%); assay type: functional
Spodoptera litura [11] = assay: Antifeedant activity against third-instar larval stage of Spodoptera litura fed with artificial diet containing compound assessed as relative consumption rate at 4.38 mg/ml after 3 days (reference value: 2.13 +/- 0.18 mg/mg/day); assay type: functional
Helicoverpa armigera [12] = assay: Insecticidal activity against second-instar larval stage of Helicoverpa armigera fed with artificial diet containing compound assessed as mortality after 7 days; assay type: functional; conditions: 168 h

SMILES | growth inhibition (GI) (Spodoptera litura [1]) | EC50 (Spodoptera litura [1]) | growth inhibition (GI) (Helicoverpa armigera [2]) | EC50 (Helicoverpa armigera [2]) | further results
CCCC(CC)C(=O)OC1CCC(OC2CCC(OC(=O)C(CC)CCC)CC2)CC1 (stereo not drawn) [4-(4-O-(2-ETHYL)HEXANOYLCYCLOHEXYLOXY)-CYCLOHEXYL-(2-ETHYL)HEXANOATE] | Dose-dependent effect | 6270 µg/mL (≈ 14.3 mM) | Dose-dependent effect | 7000 µg/mL (≈ 16 mM) | –
CCCC(=O)OCCOCCOCCOC(=O)CCC [TRIETHYLENE GLYCOL DIBUTANOATE] | Dose-dependent effect | 1640 µg/mL (≈ 5.65 mM) | Dose-dependent effect | 2120 µg/mL (≈ 7.3 mM) | Activity (Spodoptera litura [3]): 0.77 mg/mg/day; Activity (Helicoverpa armigera [4]): 1.67 mg/mg/day; Activity (Helicoverpa armigera [5]): 0.54 mg/mg/day; Activity (Helicoverpa armigera [6]): Active; LC50 (Spodoptera litura [7]): 2000 µg/mL (≈ 6.89 mM); ECI (Spodoptera litura [8]): 61%; Activity (Spodoptera litura [9]): Active; ECI (Helicoverpa armigera [10]): 32.7%; Activity (Spodoptera litura [11]): 2.06 mg/mg/day; LC50 (Helicoverpa armigera [12]): 2000 µg/mL (≈ 6.89 mM)
CCCC(=O)OCCOCCOC(=O)CCC [DIETHYLENE GLYCOL DIBUTANOATE] | Dose-dependent effect | 1760 µg/mL (≈ 7.15 mM) | Dose-dependent effect | 2890 µg/mL (≈ 11.7 mM) | –
CCCC(=O)OCC(C)COC(=O)CCC | Dose-dependent effect | 4360 µg/mL (≈ 18.9 mM) | Dose-dependent effect | 4230 µg/mL (≈ 18.4 mM) | –
CCCCCCCC(=O)OCCOCCOC(=O)CCCCCCC [DIETHYLENE GLYCOL DIOCTANOATE] | Dose-dependent effect | 1540 µg/mL (≈ 4.3 mM) | Dose-dependent effect | 2880 µg/mL (≈ 8.03 mM) | –
CCCC(=O)OC1CCC(OC2CCC(OC(=O)CCC)CC2)CC1 (stereo not drawn) [4-(4-O-BUTANOYLCYCLOHEXYLOXY)-CYCLOHEXYL BUTANOATE] | Dose-dependent effect | 6120 µg/mL (≈ 17.3 mM) | Dose-dependent effect | 7230 µg/mL (≈ 20.4 mM) | –
CCCC(CC)C(=O)OCC(C)OC(=O)C(CC)CCC (stereo not drawn) | Dose-dependent effect | 3760 µg/mL (≈ 12.5 mM) | Dose-dependent effect | 4860 µg/mL (≈ 16.2 mM) | –
CCCCC(=O)OC1CCC(OC2CCC(OC(=O)CCCC)CC2)CC1 (stereo not drawn) [4-(4-O-PENTANOYLCYCLOHEXYLOXY)-CYCLOHEXYL PENTANOATE] | Dose-dependent effect | 7890 µg/mL (≈ 20.6 mM) | Dose-dependent effect | 8240 µg/mL (≈ 21.5 mM) | –
CCCCCCCC(=O)OC1CCC(OC2CCC(OC(=O)CCCCCCC)CC2)CC1 (stereo not drawn) [4-(4-O-OCTANOYLCYCLOHEXYLOXY)-CYCLOHEXYL OCTANOATE] | Dose-dependent effect | 5760 µg/mL (≈ 12.3 mM) | Dose-dependent effect | 6340 µg/mL (≈ 13.6 mM) | –
CCCCC(=O)OCC(C)COC(=O)CCCC | Dose-dependent effect | 7020 µg/mL (≈ 27.2 mM) | Dose-dependent effect | 7840 µg/mL (≈ 30.3 mM) | –
CCCCCC(=O)OCCOCCOC(=O)CCCCC [DIETHYLENE GLYCOL DIHEXANOATE] | Dose-dependent effect | 1940 µg/mL (≈ 6.42 mM) | Dose-dependent effect | 3900 µg/mL (≈ 12.9 mM) | –
CCCCC(=O)OCCOCCOCCOC(=O)CCCC [TRIETHYLENE GLYCOL DIPENTANOATE] | Dose-dependent effect | 1540 µg/mL (≈ 4.84 mM) | Dose-dependent effect | 2090 µg/mL (≈ 6.56 mM) | –
CCCC(CC)C(=O)OCCOC(=O)C(CC)CCC (stereo not drawn) | Dose-dependent effect | 2800 µg/mL (≈ 9.78 mM) | Dose-dependent effect | 2440 µg/mL (≈ 8.52 mM) | –
CCCCCC(=O)OCC(C)COC(=O)CCCCC | Dose-dependent effect | 7580 µg/mL (≈ 26.5 mM) | Dose-dependent effect | 7760 µg/mL (≈ 27.1 mM) | –
CCCCCCCC(=O)OCCCCCOC(=O)CCCCCCC [PENTANE-1,5-DIOCTANOATE] | Dose-dependent effect | 4760 µg/mL (≈ 13.4 mM) | Dose-dependent effect | 4670 µg/mL (≈ 13.1 mM) | –
CCCCCC(=O)OCC(C)OC(=O)CCCCC (stereo not drawn) | Dose-dependent effect | 3810 µg/mL (≈ 14 mM) | Dose-dependent effect | 5260 µg/mL (≈ 19.3 mM) | –
CC(COC(=O)C(C)C)COC(=O)C(C)C | Dose-dependent effect | 7540 µg/mL (≈ 32.7 mM) | Dose-dependent effect | 8170 µg/mL (≈ 35.5 mM) | –
CC(C)C(=O)OC1CCC(OC2CCC(OC(=O)C(C)C)CC2)CC1 (stereo not drawn) [4-(4-O-ISOBUTANOYLCYCLOHEXYLOXY)-CYCLOHEXYL ISOBUTANOATE] | Dose-dependent effect | 7860 µg/mL (≈ 22.2 mM) | Dose-dependent effect | 8110 µg/mL (≈ 22.9 mM) | –
CC(C)C(=O)OCCCCCOC(=O)C(C)C [PENTANE-1,5-DI-ISOBUTANOATE] | Dose-dependent effect | 7660 µg/mL (≈ 31.4 mM) | Dose-dependent effect | 7580 µg/mL (≈ 31 mM) | –
CCCCC(=O)OCCOCCOC(=O)CCCC [DIETHYLENE GLYCOL DIPENTANOATE] | Dose-dependent effect | 1880 µg/mL (≈ 6.85 mM) | Dose-dependent effect | 3870 µg/mL (≈ 14.1 mM) | –
CCCCC(=O)OCC(C)OC(=O)CCCC (stereo not drawn) | Dose-dependent effect | 4240 µg/mL (≈ 17.4 mM) | Dose-dependent effect | 5540 µg/mL (≈ 22.7 mM) | –
CCCC(=O)OCCCCCOC(=O)CCC [PENTANE-1,5-DIBUTANOATE] | Dose-dependent effect | 4860 µg/mL (≈ 19.9 mM) | Dose-dependent effect | 4500 µg/mL (≈ 18.4 mM) | –
CC(C)C(=O)OCCOC(=O)C(C)C [ETHYLENE GLYCOL DIISOBUTANOATE] | Dose-dependent effect | 5000 µg/mL (≈ 24.7 mM) | Dose-dependent effect | 5880 µg/mL (≈ 29.1 mM) | –
CCCCCC(=O)OCCOC(=O)CCCCC [ETHYLENE GLYCOL DIHEXANOATE] | Dose-dependent effect | 1780 µg/mL (≈ 6.89 mM) | Dose-dependent effect | 2160 µg/mL (≈ 8.36 mM) | –
CCCCCC(=O)OCCCCCOC(=O)CCCCC [PENTANE-1,5-DIHEXANOATE] | Dose-dependent effect | 7510 µg/mL (≈ 25 mM) | Dose-dependent effect | 8050 µg/mL (≈ 26.8 mM) | –
CC(C)C(=O)OCCOCCOC(=O)C(C)C [DIETHYLENE GLYCOL DIISOBUTANOATE] | Dose-dependent effect | 5120 µg/mL (≈ 20.8 mM) | Dose-dependent effect | 6450 µg/mL (≈ 26.2 mM) | –
CCCCCCCC(=O)OCC(C)COC(=O)CCCCCCC | Dose-dependent effect | 6210 µg/mL (≈ 18.1 mM) | Dose-dependent effect | 4540 µg/mL (≈ 13.3 mM) | –
